{"source": "ChEMBL document CHEMBL4673209", "about": "“Discovery of a novel potent GPR40 full agonist” (Bioorg Med Chem Lett, 2018)", "key": {"[1]": {"target": "Free fatty acid receptor 1 (Homo sapiens, UniProt O14842)", "sequence (O14842 whole entry)": "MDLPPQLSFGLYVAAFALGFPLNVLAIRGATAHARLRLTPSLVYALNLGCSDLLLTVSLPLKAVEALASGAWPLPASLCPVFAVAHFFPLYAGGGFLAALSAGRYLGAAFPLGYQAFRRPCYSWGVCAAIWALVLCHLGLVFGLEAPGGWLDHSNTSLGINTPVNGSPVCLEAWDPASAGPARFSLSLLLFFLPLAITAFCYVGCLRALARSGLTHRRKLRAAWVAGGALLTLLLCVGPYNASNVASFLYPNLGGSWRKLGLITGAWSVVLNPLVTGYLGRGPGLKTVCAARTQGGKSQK", "assay": "Agonist activity at human GPR40 receptor expressed in CHOK1 cells assessed as induction of IP1 accumulation at 10 uM relative to AM1638", "format": "functional, cell-based", "settings": "CHO-K1, filed as agonist"}, "[2]": {"target": "Free fatty acid receptor 1 (Mus musculus, UniProt Q76JU9)", "sequence (Q76JU9 whole entry)": "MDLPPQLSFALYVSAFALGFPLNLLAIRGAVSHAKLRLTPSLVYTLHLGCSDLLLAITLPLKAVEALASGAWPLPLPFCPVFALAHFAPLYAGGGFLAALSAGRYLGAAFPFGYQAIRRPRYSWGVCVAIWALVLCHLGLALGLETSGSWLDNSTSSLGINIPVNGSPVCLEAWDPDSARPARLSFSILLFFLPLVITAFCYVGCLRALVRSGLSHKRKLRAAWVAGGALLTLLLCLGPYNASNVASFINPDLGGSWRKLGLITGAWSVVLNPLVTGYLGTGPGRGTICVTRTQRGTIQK", "assay": "Agonist activity at mouse GPR40 assessed as increase in intracellular calcium level", "format": "functional, cell-based"}, "[3]": {"target": "Free fatty acid receptor 1 (Rattus norvegicus) (UniProt Q8K3T4)", "sequence (Q8K3T4 whole entry)": "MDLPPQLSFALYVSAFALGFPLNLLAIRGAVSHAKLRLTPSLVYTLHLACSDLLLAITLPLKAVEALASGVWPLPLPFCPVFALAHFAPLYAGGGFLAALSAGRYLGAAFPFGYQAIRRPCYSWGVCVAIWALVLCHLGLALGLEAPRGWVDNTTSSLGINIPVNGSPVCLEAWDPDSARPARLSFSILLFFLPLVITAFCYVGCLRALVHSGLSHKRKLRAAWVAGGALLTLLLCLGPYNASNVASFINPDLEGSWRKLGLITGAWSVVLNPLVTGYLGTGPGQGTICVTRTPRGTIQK", "assay": "Agonist activity at rat GPR40 receptor expressed in CHOK1 cells assessed as induction of IP1 accumulation at 10 uM relative to AM1638", "format": "functional, cell-based", "settings": "CHO-K1, filed as agonist"}, "[4]": {"target": "Free fatty acid receptor 1 (Rattus norvegicus, UniProt Q8K3T4)", "sequence (Q8K3T4 whole entry)": "as above", "assay": "Agonist activity at rat GPR40 receptor expressed in CHOK1 cells assessed as induction of IP1 accumulation", "format": "functional, cell-based, CHO-K1"}, "[5]": {"target": "T1, Peroxisome proliferator-activated receptor delta (Homo sapiens) (UniProt Q03181)", "T1 sequence (whole entry)": "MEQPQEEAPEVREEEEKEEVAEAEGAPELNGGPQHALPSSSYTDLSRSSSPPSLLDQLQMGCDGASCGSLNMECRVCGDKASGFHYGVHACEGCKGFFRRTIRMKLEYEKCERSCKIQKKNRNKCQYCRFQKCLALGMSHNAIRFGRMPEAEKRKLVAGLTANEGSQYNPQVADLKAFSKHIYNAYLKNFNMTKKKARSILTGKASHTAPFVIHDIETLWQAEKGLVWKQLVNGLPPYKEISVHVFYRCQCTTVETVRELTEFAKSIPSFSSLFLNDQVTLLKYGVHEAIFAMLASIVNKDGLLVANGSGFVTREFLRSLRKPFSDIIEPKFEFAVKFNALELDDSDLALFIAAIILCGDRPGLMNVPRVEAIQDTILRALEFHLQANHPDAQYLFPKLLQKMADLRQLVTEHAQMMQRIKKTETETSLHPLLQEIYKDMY", "assay": "Agonist activity at PPARbeta (unknown origin)"}, "[6]": {"assay": "Intrinsic clearance in dog assessed as half-life at 1 uM", "format": "ADME, Canis lupus familiaris"}, "[7]": {"target": "T2, Cytochrome P450 1A2 (Homo sapiens, UniProt P05177)", "T2 sequence (P05177 whole entry)": "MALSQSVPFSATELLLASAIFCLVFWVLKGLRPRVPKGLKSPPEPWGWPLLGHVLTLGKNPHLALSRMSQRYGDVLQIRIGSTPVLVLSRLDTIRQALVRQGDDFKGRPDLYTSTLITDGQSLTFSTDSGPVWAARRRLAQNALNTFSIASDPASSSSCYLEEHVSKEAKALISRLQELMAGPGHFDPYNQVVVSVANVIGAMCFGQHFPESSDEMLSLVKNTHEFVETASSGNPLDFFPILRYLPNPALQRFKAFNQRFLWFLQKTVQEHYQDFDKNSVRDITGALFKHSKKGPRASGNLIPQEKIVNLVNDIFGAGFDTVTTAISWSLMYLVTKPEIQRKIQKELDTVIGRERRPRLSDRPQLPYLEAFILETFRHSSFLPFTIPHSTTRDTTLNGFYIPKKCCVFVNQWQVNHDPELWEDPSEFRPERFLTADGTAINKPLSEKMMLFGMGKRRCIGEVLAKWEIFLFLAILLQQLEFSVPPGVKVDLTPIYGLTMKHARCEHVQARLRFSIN", "assay": "Inhibition of CYP1A2 (unknown origin)", "format": "ADME"}, "[8]": {"organism": "Mus musculus", "assay": "Anti-glycemic activity in GPR40 knockout mouse assessed as reduction in blood glucose excursion measured for 120 mins by IPGTT", "format": "functional, organism-based"}, "[9]": {"assay": "Intrinsic clearance in rat assessed as half-life at 1 uM", "format": "ADME"}, "[10]": {"assay": "Drug metabolism in rat assessed as (3S)-3-cyclopropyl-3-(3-((5-(5-fluoro-2-hydroxypyridin-4-yl)-6-isobutylpyrazin-2-yl)methoxy)phenyl)propanoic acid metabolite formation by MetID studies", "format": "ADME"}}, "note": "pEC50, pIC50: −log10 of the molar value. Activity calls are given as the source filed them. No cut-off for these calls is given here.", "data": [{"compound": "COc1cc(-c2ncc(COc3cccc([C@@H](CC(=O)O)C4CC4)c3)nc2CC(C)C)c(F)cn1", "values": [{"measurement": "Activity", "setting": "[1]", "result": 121, "unit": "%"}, {"measurement": "pEC50", "setting": "[2]", "result": 7.42}, {"measurement": "Activity", "setting": "[3]", "result": 95, "unit": "%"}, {"measurement": "pEC50", "setting": "[4]", "result": 6.26}, {"measurement": "Activity", "setting": "[5]", "result": "inactive"}, {"measurement": "half-life at 1 µM", "setting": "[6]", "result": 82.8, "unit": "min"}, {"measurement": "pIC50", "setting": "[7]", "result": "< 5.00"}, {"measurement": "Activity", "setting": "[8]", "result": "inactive"}, {"measurement": "half-life at 1 µM", "setting": "[9]", "result": 48, "unit": "min"}, {"measurement": "Drug metabolism", "setting": "[10]", "result": "Metabolite_Detected"}]}]}
